The experiment has as its target T1, KIT D816H (Homo sapiens, UniProt P10721, D816H).
T1 construct: purchased Thermo Fisher Scientific (Life Technologies) SelectScreen
Briefly: SelectScreen LanthaScreen. The settings on record: read-out: % displacement. The class given is binding. The gist of the method: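 SelectScreen broad panel; activity (Z'LYTE, Adapta) plus binding formats. ATP: Km app for CSF1R Z'LYTE; 10 for CAMK1 Adapta. Readout = % per kinase.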
Background: Time-resolved FRET reads energy transfer from a long-lived donor to a nearby acceptor.

T1 sequence (P10721 26-976 D816H): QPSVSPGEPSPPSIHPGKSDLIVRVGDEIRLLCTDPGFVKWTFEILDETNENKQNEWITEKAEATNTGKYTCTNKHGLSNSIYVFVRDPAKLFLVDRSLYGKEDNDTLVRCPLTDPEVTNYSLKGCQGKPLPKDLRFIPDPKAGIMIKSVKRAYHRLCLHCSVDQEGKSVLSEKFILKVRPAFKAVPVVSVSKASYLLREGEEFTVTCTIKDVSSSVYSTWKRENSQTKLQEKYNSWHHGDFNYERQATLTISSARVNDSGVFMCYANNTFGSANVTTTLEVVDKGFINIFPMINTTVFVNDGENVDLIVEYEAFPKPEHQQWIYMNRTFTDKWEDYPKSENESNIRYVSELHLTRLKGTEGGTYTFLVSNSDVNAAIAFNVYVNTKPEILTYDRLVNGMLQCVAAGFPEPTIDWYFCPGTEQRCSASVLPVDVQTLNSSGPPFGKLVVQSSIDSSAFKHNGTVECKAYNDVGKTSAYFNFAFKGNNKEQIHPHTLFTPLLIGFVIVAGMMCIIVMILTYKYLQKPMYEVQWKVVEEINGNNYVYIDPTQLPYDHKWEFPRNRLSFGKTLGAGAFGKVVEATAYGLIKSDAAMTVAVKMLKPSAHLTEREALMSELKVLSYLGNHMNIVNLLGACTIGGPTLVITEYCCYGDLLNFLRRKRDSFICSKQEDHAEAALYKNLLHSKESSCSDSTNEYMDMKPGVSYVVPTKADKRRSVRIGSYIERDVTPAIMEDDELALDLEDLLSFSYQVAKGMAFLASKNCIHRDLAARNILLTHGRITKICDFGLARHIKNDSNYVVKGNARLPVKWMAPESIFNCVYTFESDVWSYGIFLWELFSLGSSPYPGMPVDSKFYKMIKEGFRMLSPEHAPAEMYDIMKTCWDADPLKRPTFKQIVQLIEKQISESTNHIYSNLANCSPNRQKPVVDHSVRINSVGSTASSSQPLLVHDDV

For `CN(C(=O)CN1CCOCC1)c1ccc2sc3c(-c4cccc5c(=O)cc(N6CC7CCC(C6)O7)oc45)cccc3c2c1` [NU5455], the inhibition at 1 µM was -0.2%.

The values above are taken from article PMC6934184, “Selective DNA-PKcs inhibition extends the therapeutic index of localized radiotherapy and chemotherapy” (The Journal of Clinical Investigation, 2019).
